# Experimental data as given in patent US20120082626A1, “USE OF R-BAMBUTEROL AS INHALED MEDICAMENT AND COMBINATION THERAPIES FOR TREATMENT OF RESPIRATORY DISORDERS” (priority 2009, published 2012).
# Entries after “also recorded” stand apart in the source; their conditions may differ.
# Experiments:
# [1] = tested on: histamine evoked asthma in conscious guinea-pigs; assay: Protection against histamine-evoked asthma by inhaled drug in conscious guinea pigs; format: in vivo, guinea pigs (Dunkin-Hartley strain); conditions: for Latency: no collapse over 360 sec recorded as 360
# Experimental: (§1) Test methods: Guinea pigs (Dunkin-Hartley strain, 200±30 g) were fasted overnight but given water ad libidum. The animals were restrained individually in a glass chamber and exposed to aerosol histamine generated by a nebulizer from a 0.2% aqueous solution of histamine under constant pressure at dose of 0.5 ml/min for a period of 15 sec. The animal was removed from the chamber, and its behavior was monitored. Assign of collapse and the latency time from exposure to collapse were recorded. Only the animals with latency time less than 120 sec, as an indication of sensitive to histamine, were chosen for later experiments. The animals chosen were allowed to recover completely by resting for 24 hours before experiments. R-bambuterol and racemic bambuterol hydrochloride were dissolved in saline and nublized in a nebulizer.
# Study of dose-response: One hours before the exposure to aerosol histamine, animals were randomized into groups (n=8, equal sex), and Nublized R-bambuterol hydrochloride or bambuterol hydrochloride in doses of 63, 126, 252 and 504 μg/kg, and vehicle control were inhaled by the animals via a mouth and nasal mask. The numbers of collapsed animal as a result of asthmatic reaction to aerosol histamine were counted, and the latency times were recorded. Both of these parameters were used as quantitative measurements of the protective effects of the treatments on bronchospasm evoked by aerosol histamine.
# [2] = tested on: histamine evoked asthma in conscious guinea-pigs; assay: Histamine-evoked asthma in conscious guinea pigs after oral administration; format: in vivo, guinea pigs (Dunkin-Hartley strain); conditions: for Latency: no collapse over 360 sec recorded as 360
# Experimental: as §1
# Comparison of the anti-asthma effects of R-bambuterol (R-BM) and bambuterol (RS-BM) administered by oral and by inhalation in conscious guinea pigs. Test methods: same as Example 1.
# Study of dose-response: Same as Example 1, except the following: four hours before the exposure to aerosol histamine, animals were randomized into groups (n=8, equal male and female), and given R-bambuterol hydrochloride or racemic bambuterol hydrochloride in doses of 1.0, 2.0, 4.0 and 8.0 mg/kg, and vehicle control, orally via a stomach tube.
# [3] = tested on: histamine evoked asthma in conscious guinea-pigs; assay: Time course of anti-asthma effects after oral administration or inhalation; format: in vivo; conditions: for No. of collapsed: n=8
# Experimental: The time course of the anti-asthma effects of R-bambuterol (R-BM) and bambuterol (RS-BM) after administered by oral and by inhalation. Test Methods: same as example 1 except the following:
# For orally administration, R-Bambuterol hydrochloride or racemic bambuterol hydrochloride at 4 and 8 mg/kg, and vehicle alone, were administered to the guinea pigs orally via a stomach tube. Exposure of treated animals to aerosol histamine (as above) was done at 1, 4 and 12 hours after R-bambuterol or bambuterol treatment. For each experimental group, there were a total of 8 animals with equal number in sex, and no repeated exposure was made for individual experimental animals.
# For inhalation, R-Bambuterol hydrochloride or racemic bambuterol hydrochloride at 0.252 and 0.504 mg/kg, and vehicle alone, were nebulized and administered to the guinea pigs by inhalation. Exposure of drug treated animals to aerosol histamine (as above) was done at 1,4 and 12 hours after drug treatment. For each experimental group, there were a total of 8 animals with equal number in sex, and no repeated exposure was made for individual experimental animals.
# [4] = tested on: OVA evoked asthma in sensitized guinea pigs; assay: Airway resistance and dynamic pulmonary compliance after inhalation in OVA sensitized guinea pigs; format: in vivo; conditions: for protection against asthma attack by antigen (OVA) challenge: pretreatment by inhalation about three minutes before OVA challenge; for change of Raw and Cdyn at resting state after inhalation: before OVA challenge
# Experimental: Sensitization of animals: Ovalbumin (10 μg/ml) was injected into guinea-pigs subcutaneously and coincidentally with an intraperitoneal injection of B. pertussis vaccine. Identical injection of ovalbumin and adjuvant were made day 15 and 21 days later. On day 28th the animals were examined and used for studies.
# Test Methods: The sensitized guinea pigs wer anaethetized. A cannula was inserted into the trachea. A plueral cannula was inserted into pleural space through the chest wall. Airway resistance (Raw) and dynamic pulmonary compliance (Cdyn) were measured by using the signals of intraplueral pressure, airflow and tidal volume.
# The animals were restreined in closed chamber and nebulized R-bambuterol or S-bambuterol were inhaled at the dose of 126 μg/kg. After three minutes conditioning, the animals were then challenged with nebulized OVA to evoke asthma. Airway resistance (Raw) and dynamic pulmonary compliance (Cdyn) were measured before and after evoking asthma.
# [5] = tested on: OVA evoked asthma in sensitized guinea-pigs; assay: Relief of antigen-evoked asthma by inhalation after challenge in OVA sensitized guinea-pigs; format: in vivo; conditions: nebulized drug inhaled after antigen challenge
# Source text: In an embodiment of the invention, the ovalbumin (OVA) sensitized guinea-pigs were first challenged with nebulized antigen to evoke asthma, then the animals were allowed to inhale nebulized R-bambuterol or bambuterol. […] In a further embodiment of the invention, the sensitized guinea-pigs were first pretreated with nebulized R-bambuterol or bambuterol by inhalation. After three minutes, the same animals were challenged with nebulized antigen. […] The fast onset of action in the invention can also not be explained by Svenssion's in vitro metabolic study noted above that the dominate product is mono-carbamate bambuterol and litter terbutaline at initial phase., while the major amount of terbutaline will be formed at much later phase. (Svensson et al., 1988).
# [6] = cited from earlier work
# [7] = tested on: asthma evoked by intravenously administrated histamine; conditions: anesthetized guinea pigs, intravenous histamine; cited from earlier work
# [8] = tested on: bronchial and lung preparations; conditions: in vitro; cited from earlier work
# [9] = tested on: OVA evoked asthma in sensitized guinea pigs; assay: Airway resistance in OVA asthma attack after oral administration in sensitized guinea pigs; format: in vivo
# Experimental: Sensitized animals were divided into Saline (control), S-Bambuterol and R-bambuterol groups. R or S bambuterol were administered by both inhalation by oral ([…]). Airway resistance (Raw) and dynamic pulmonary compliance (Cdyn) were measured at resting or during astham challenge by OVA. Animal preparation and experimental methods were similar as described previously.
# [10] = tested on: OVA evoked asthma in sensitized guinea pigs; assay: Drug tolerance to R-bambuterol induced by pretreatment; format: in vivo
# Experimental: Animal sensitization and experiment methods were similar as discribed above. Briefly, animals were divided into three groups. R-bambuterol (8 mg/kg) or S-bamburerol (8 mg/kg) or 0.9% NaCL (control) were given orally in equal volum to each group seperatedly once a day for 7 consecutive days in order to induce drug tolerances. The Protection effects of same dosage of R-bambuterol against asthma attack induced by OVA challenge were evaluated by the changes of Airway resistance (Raw) and dynamic pulmonary compliance (Cdyn).
# [11] = inhale, at maximum effective dose (R-BM 0.252, RS-BM 0.505 mg/Kg)
# [12] = oral, at maximum effective dose (R-BM 4.0, RS-BM 8.0 mg/Kg)
# [13] = inhalation (R-BM 252 μg/kg, RS-BM 504 μg/kg), histamine 60 min after
# [14] = inhalation (R-BM 252 μg/kg, RS-BM 504 μg/kg), histamine 240 min after
# [15] = inhalation (R-BM 252 μg/kg, RS-BM 504 μg/kg), histamine 720 min after
# [16] = oral (R-BM 4.0 mg/kg, RS-BM 8.0 mg/kg), histamine 60 min after
# [17] = oral (R-BM 4.0 mg/kg, RS-BM 8.0 mg/kg), histamine 240 min after
# [18] = oral (R-BM 4.0 mg/kg, RS-BM 8.0 mg/kg), histamine 720 min after
# [19] = pretreated with the labelled substance 8 mg/kg orally once a day 7 days, then R-bambuterol, OVA challenge, n=8
smiles,measurement,setting,value
CN(C)C(=O)Oc1cc(OC(=O)N(C)C)cc(C(O)CNC(C)(C)C)c1 (racemic) [bambuterol],dosage required for maximum anti-asthmatic effects (complete protection against histamine) by inhalation,[1]; inhalation,512 µg/kg
same,maximum effective dose required by inhalation,[1]; inhale,Inhale (0.505) mg/Kg
same,Animal collapsed (%),[1]; [11],0%
same,Animal collapsed (number/group),[1]; [11],0/8
same,Latency,[1]; inhaled 63 μg/Kg,42 ± 9 s
same,Latency,[1]; inhaled 126 μg/Kg,85 ± 112 s
same,Latency,[1]; inhaled 252 μg/Kg,209 ± 162 s
same,Latency,[1]; inhaled 504 μg/Kg,360 ± 0 s
same,Oral:Inhale ratio of maximum effective dose,[1]; oral dose vs inhaled dose for maximum anti-asthmatic effect,16
same,maximum effective dose required by oral (none of the histamine challenged animals collapsed),[2]; oral,8 mg/kg
same,Latency,[2]; oral 1.0 mg/Kg,151 ± 130 s
same,Latency,[2]; oral 2.0 mg/Kg,227 ± 143 s
same,Latency,[2]; oral 4.0 mg/Kg,299 ± 113 s
same,Latency,[2]; oral 8.0 mg/Kg,360 ± 0 s
same,Animal collapsed (%),[2]; [12],0%
same,Animal collapsed (number/group),[2]; [12],0/8
same,maximum effective dose required by oral (none of the histamine challenged animals collapsed),"[2]; oral, listed as RS-BM",Oral (8.0 ) mg/Kg
same,Latency,[3]; [13],360 ± 0 s
same,No. of collapsed,[3]; [13],0/8
same,Latency,[3]; [14],360 ± 0 s
same,No. of collapsed,[3]; [14],0/8
same,Latency,[3]; [15],287 ± 136 s
same,No. of collapsed,[3]; [15],2/8
same,maximum anti-asthmatic effects by inhalation faster than by oral administration,[3]; inhalation vs oral,4 h
same,Latency,[3]; [16],260 ± 131 s
same,No. of collapsed,[3]; [16],3/8
same,Latency,[3]; [17],360 ± 0 s
same,No. of collapsed,[3]; [17],0/8
same,Latency,[3]; [18],360 ± 0 s
same,No. of collapsed,[3]; [18],0/8
same,protection against asthma attack by antigen (OVA) challenge,[4],significant anti-asthma effects
same,relief of asthmatic symptoms after inhalation,[5],immediately relieved within matter of tenths of seconds to a couple of minutes
same,duration of blood concentration of active parent drug,[6]; after an oral administration,up to 24 hours
same,concentration in lungs relative to plasma,[6]; after oral administration (Svensson 1991),~20 times
same,amount needed relative to terbutaline to reach the same concentration of terbutaline in blood,"[6]; given orally, on molar basis",5 times
same,tmax of terbutaline released from bambuterol later than tmax of terbutaline taken orally,[6]; oral (Olsson et al. 1984),four
same,time of maximum concentration (tmax),[6]; oral,around one
same,bronchospasmolytic effects when inhaled,[7],inactive and lack bronchospasmolytic effects
same,relaxation effects,[8],no relaxation effects
CN(C)C(=O)Oc1cc(OC(=O)N(C)C)cc([C@H](O)CNC(C)(C)C)c1 [S-bambuterol],change of Raw and Cdyn at resting state after inhalation,[4],increasing airway resistance and reducing pulmonary dynamic compliance; also recorded: significant increase in airway resistance (Raw) and decrease in pulmonary compliance (Cdyn)
same,change of Raw and Cdyn at resting state after inhalation,[4]; listed as S-Bambuterol,significant increase in Raw and decrease in Cdyn
same,collapse induced by inhalation per se,"[4]; inhalation, sensitized guinea pigs",induced a collapes of a guinea pig
same,protection against asthma attack by antigen (OVA) challenge,[4],no such protection at all; also recorded: inactive in protectoin against asthma attack
same,change of Raw and Cdyn during the asthma attack comparing to control,[4]; treated by inhalation,greater increase in airway resistance (Raw) and decrease in pulmonary compliance (Cdyn)
same,change of Raw and Cdyn in resting state,[9]; given orally,little changes in either Raw and Cdyn
same,change in Raw / asthmatic response during the asthmatic attack by OVA,[9]; oral,significantly enhance the asthmatic response to OVA challenge than control; also recorded: significant increases in Raw; also recorded: significantly worsen the asthmatic response
same,Changes in Airway resistance (Raw) at 4th min after OVA challenge,"[9]; pretreated oral 4 m/kg, n=8",2.40 ± 0.96
same,Changes in Airway resistance (Raw) at 5th min after OVA challenge,"[9]; pretreated oral 4 m/kg, n=8",2.41 ± 0.98
same,protection effects of R-bambuterol against asthmatic attack after pretreatment,[10]; group pretreated with the labelled substance,significantly reduced
same,Changes in Cdyn During asthma,[10]; [19],−0.25 ± 0.10
same,Changes in Raw During asthma,[10]; [19],+0.36 ± 0.23
